Active and inactive are the calls of the source. No rule for the calls is given here.
Test system: CCRIS mutagenicity, Ames/micronucleus/aberration tests
Test: CCRIS mutagenicity studies
[1] = Test System: AMES SALMONELLA TYPHIMURIUM, Strain/Indicator: TA98, Metabolic Activation: NONE, Method: PREINCUBATION
[2] = Test System: AMES SALMONELLA TYPHIMURIUM, Strain/Indicator: TA100, Metabolic Activation: NONE, Method: PREINCUBATION

Measured: mutagenic call

C=CC(C)(O)CCC=C(C)C (stereo not drawn)
inactive: Test System: AMES SALMONELLA TYPHIMURIUM, Strain/Indicator: TA97, Metabolic Activation: NONE, Method: PREINCUBATION inactive; negative | Test System: AMES SALMONELLA TYPHIMURIUM, Strain/Indicator: TA97, Metabolic Activation: RAT, LIVER, S-9, AROCLOR 1254, Method: PREINCUBATION inactive; negative | Test System: AMES SALMONELLA TYPHIMURIUM, Strain/Indicator: TA102, Metabolic Activation: NONE, Method: PREINCUBATION inactive; negative | Test System: AMES SALMONELLA TYPHIMURIUM, Strain/Indicator: TA102, Metabolic Activation: RAT, LIVER, S-9, AROCLOR 1254, Method: PREINCUBATION inactive; negative | Test System: E. coli, Strain/Indicator: WP2 IC185 trpE65, Metabolic Activation: None, Method: Plate incorporation (Test material solvent: ethanol) inactive; negative | Test System: E. coli, Strain/Indicator: WP2 IC202 trpE65 oxyR/pKM101, Metabolic Activation: None, Method: Plate incorporation (Test material solvent: ethanol) inactive; negative

CCNCCN
inactive: [1] inactive; negative | Test System: AMES SALMONELLA TYPHIMURIUM, Strain/Indicator: TA98, Metabolic Activation: RAT LIVER S-9, PHENOBARBITAL AND BETA-NAPHTHOFLAVONE, Method: PREINCUBATION inactive; negative | [2] inactive; negative | Test System: AMES SALMONELLA TYPHIMURIUM, Strain/Indicator: TA100, Metabolic Activation: RAT LIVER S-9, PHENOBARBITAL AND BETA-NAPHTHOFLAVONE, Method: PREINCUBATION inactive; negative | Test System: AMES SALMONELLA TYPHIMURIUM, Strain/Indicator: TA1535, Metabolic Activation: NONE, Method: PREINCUBATION inactive; negative | Test System: AMES SALMONELLA TYPHIMURIUM, Strain/Indicator: TA1535, Metabolic Activation: RAT LIVER S-9, PHENOBARBITAL AND BETA-NAPHTHOFLAVONE, Method: PREINCUBATION inactive; negative | Test System: AMES SALMONELLA TYPHIMURIUM, Strain/Indicator: TA1537, Metabolic Activation: NONE, Method: PREINCUBATION inactive; negative | Test System: AMES SALMONELLA TYPHIMURIUM, Strain/Indicator: TA1537, Metabolic Activation: RAT LIVER S-9, PHENOBARBITAL AND BETA-NAPHTHOFLAVONE, Method: PREINCUBATION inactive; negative | Test System: AMES SALMONELLA TYPHIMURIUM, Strain/Indicator: TA1538, Metabolic Activation: NONE, Method: PREINCUBATION inactive; negative | Test System: AMES SALMONELLA TYPHIMURIUM, Strain/Indicator: TA1538, Metabolic Activation: RAT LIVER S-9, PHENOBARBITAL AND BETA-NAPHTHOFLAVONE, Method: PREINCUBATION inactive; negative | Test System: E.COLI, Strain/Indicator: WP2UVRA, Metabolic Activation: NONE, Method: PREINCUBATION inactive; negative | Test System: E.COLI, Strain/Indicator: WP2UVRA, Metabolic Activation: RAT LIVER S-9, PHENOBARBITAL AND BETA-NAPHTHOFLAVONE, Method: PREINCUBATION inactive; negative

O=C(CBr)c1ccc(Br)cc1
inactive: [1] inactive; negative | Test System: AMES SALMONELLA TYPHIMURIUM, Strain/Indicator: TA98, Metabolic Activation: RAT, LIVER, S-9, PCB, Method: PREINCUBATION inactive; negative | [2] inactive; negative | Test System: AMES SALMONELLA TYPHIMURIUM, Strain/Indicator: TA100, Metabolic Activation: RAT, LIVER, S-9, PCB, Method: PREINCUBATION inactive; negative | Test System: E. COLI, Strain/Indicator: WP2 UVRA, Metabolic Activation: NONE, Method: PREINCUBATION inactive; negative

From PubChem BioAssay AID1259407 (Chemical Carcinogenesis Research Information System (CCRIS), 2018)
